The target of the assay is T1, STAT6 (Homo sapiens, UniProt P42226).
T1 construct: stably transfected HaCaT keratinocyte cell line, which expresses NanoLuc luciferase reporter gene under the transcriptional control of the STAT6 responsive promoter; endogenous in cells; host or cells: HaCaT keratinocyte reporter cell line (stably transfected with a NanoLuc reporter)
T1 sequence (P42226 1-847): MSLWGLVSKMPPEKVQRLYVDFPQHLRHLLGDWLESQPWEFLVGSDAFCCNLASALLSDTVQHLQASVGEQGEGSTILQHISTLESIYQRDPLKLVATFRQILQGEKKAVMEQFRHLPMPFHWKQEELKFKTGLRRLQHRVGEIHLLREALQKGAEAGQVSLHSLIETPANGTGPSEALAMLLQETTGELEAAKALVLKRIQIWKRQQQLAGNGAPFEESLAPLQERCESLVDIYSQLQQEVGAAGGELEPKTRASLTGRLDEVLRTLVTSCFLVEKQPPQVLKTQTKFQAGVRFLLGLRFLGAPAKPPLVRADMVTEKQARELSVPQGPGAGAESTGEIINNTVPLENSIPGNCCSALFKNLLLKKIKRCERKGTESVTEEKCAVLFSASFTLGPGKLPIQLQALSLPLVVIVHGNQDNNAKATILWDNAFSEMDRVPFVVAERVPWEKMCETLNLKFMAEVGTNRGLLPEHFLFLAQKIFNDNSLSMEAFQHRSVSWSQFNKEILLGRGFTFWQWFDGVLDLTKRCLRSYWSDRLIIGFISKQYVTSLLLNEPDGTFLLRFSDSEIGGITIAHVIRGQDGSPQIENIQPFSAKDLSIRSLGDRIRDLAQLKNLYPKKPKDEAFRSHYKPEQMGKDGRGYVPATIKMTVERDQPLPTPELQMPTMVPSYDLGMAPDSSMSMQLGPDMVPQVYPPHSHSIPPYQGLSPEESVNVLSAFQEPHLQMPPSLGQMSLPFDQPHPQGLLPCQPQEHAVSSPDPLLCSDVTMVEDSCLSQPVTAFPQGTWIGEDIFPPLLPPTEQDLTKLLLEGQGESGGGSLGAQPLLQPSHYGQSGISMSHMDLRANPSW
The assay is described as follows: STAT6 Reporter Luciferase Assay (IL-13 stimulated HaCaT keratinocyte NanoLuc reporter cells). It counts as cell-based. The note with it: IL-13 stimulated HaCaT STAT6 NanoLuc reporter cells; read-out: Reporter EC50. The method, boiled down:
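HaCaT cells stably carrying a NanoLuc reporter driven by the STAT6-responsive IL-13Ra2 promoter were preincubated with compounds for 2 h at 37 °C in 2% FBS medium. Cells were then stimulated with 0.12 nM IL-13 for 4 h, and luminescence was read after Nano-Glo substrate. Compounds ran as 11-point 4-fold dilutions in duplicate.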
As to `COC[C@H]1CN(C(=O)Nc2ccc(CNC(=O)c3nn(C(C)C)c4c3CN(c3ccc(C(=O)N(C)C)cc3)C[C@@H]4C)cc2F)CCN1` [Example 689, (S)-5-(4-(dimethylcarbamoyl)phenyl)-N-(3-fluoro-4-((R)-3-(methoxymethyl)piperazine-1-carboxamido)benzyl)-1-isopropyl-7-methyl-4,5,6,7-tetrahydro-1H-pyrazolo[4,3-c]pyridine-3-carboxamide], the EC50 (in general, the concentration at which the effect is half-maximal) is 1 nM.

Consider `CC(C)n1nc(C(=O)NCc2ccc(NC(=O)N3CCN4CCC[C@@H]4C3)c(F)c2)c2c1[C@@H](C)CN(c1ccc(C(=O)N(C)C)cn1)C2` [Example 690, (S)-5-(5-(dimethylcarbamoyl)pyridin-2-yl)-N-(3-fluoro-4-((R)-octahydropyrrolo[1,2-a]lpyrazine-2-carboxamido)benzyl)-1-isopropyl-7-methyl-4,5,6,7-tetrahydro-1H-pyrazolo[4,3-c]pyridine-3-carboxamide], for which the half-maximal effective concentration (EC50) stood at 1 nM.

For the molecule `CC(C)n1nc(C(=O)NCc2ccc(NC(=O)N3CCN4CCC[C@@H]4C3)cc2)c2c1[C@@H](C)CN(c1ccc(C(=O)N(C)C)cn1)C2` [Example 691, (S)-5-(5-(dimethylcarbamoyl)pyridin-2-yl)-1-isopropyl-7-methyl-N-(4-((R)-octahydropyrrolo[1,2-a]pyrazine-2-carboxamido)benzyl)-4,5,6,7-tetrahydro-1H-pyrazolo[4,3-c]pyridine-3-carboxamide], the concentration giving a half-maximal response (EC50) was found to be 1 nM.

For the molecule `CC(C)n1nc(C(=O)NCc2ccc(NC(=O)N(C)CCC(=O)O)c(F)c2)c2c1[C@@H](C)CN(c1ccc(C(=O)N(C)C)cc1)C2` [Example 733, (S)-3-(3-(4-((5-(4-(dimethylcarbamoyl)phenyl)-1-isopropyl-7-methyl-4,5,6,7-tetrahydro-1H-pyrazolo[4,3-c]pyridine-3-carboxamido)methyl)-2-fluorophenyl)-1-methylureido)propanoic acid], the concentration for a half-maximal effect (EC50) is 342 nM.

`CC(C)n1nc(C(=O)NCc2ccc(NC(=O)N3CCC(C(=O)O)CC3)c(F)c2)c2c1[C@@H](C)CN(c1ccc(C(=O)N(C)C)cc1)C2` [Example 734, (S)-1-((4-((5-(4-(dimethylcarbamoyl)phenyl)-1-isopropyl-7-methyl-4,5,6,7-tetrahydro-1H-pyrazolo[4,3-c]pyridine-3-carboxamido)methyl)-2-fluorophenyl)carbamoyl)piperidine-4-carboxylic acid]: the EC50 came to 38 nM.

For `CC(C)n1nc(C(=O)NCc2ccc(NC(=O)N3CCN(C)[C@@H](C)C3)cc2)c2c1[C@@H](C)CN(c1ccc(C(=O)N(C)C)cc1)C2` [Example 735, (S)-5-(4-(dimethylcarbamoyl)phenyl)-N-(4-((S)-3,4-dimethylpiperazine-1-carboxamido)benzyl)-1-isopropyl-7-methyl-4,5,6,7-tetrahydro-1H-pyrazolo[4,3-c]pyridine-3-carboxamide], the 50% effective concentration (EC50) came out at 1 nM.

For the molecule `CC(C)n1nc(C(=O)NCc2ccc(NC(=O)N3CC[C@@H](CN(C)C)C3)cc2)c2c1[C@@H](C)CN(c1ccc(C(=O)N(C)C)cc1)C2` [Example 736, (S)-N-(4-((S)-3-((dimethylamino)methyl)pyrrolidine-1-carboxamido)benzyl)-5-(4-(dimethylcarbamoyl)phenyl)-1-isopropyl-7-methyl-4,5,6,7-tetrahydro-1H-pyrazolo[4,3-c]pyridine-3-carboxamide], the EC50 was 1 nM.

Regarding `CC(C)n1nc(C(=O)NCc2ccc(NC(=O)N3CCN4CCCC[C@H]4C3)cc2)c2c1[C@@H](C)CN(c1ccc(C(=O)N(C)C)cc1)C2` [Example 737, (S)-N-(4-(((S)-5-(4-(dimethylcarbamoyl)phenyl)-1-isopropyl-7-methyl-4,5,6,7-tetrahydro-1H-pyrazolo[4,3-c]pyridine-3-carboxamido)methyl)phenyl)octahydro-2H-pyrido[1,2-a]pyrazine-2-carboxamide], the 50% effective concentration (EC50) was 1 nM.

In the case of `CC(C)n1nc(C(=O)NCc2ccc(NC(=O)N3CCC4(CC3)CN(C)CCO4)cc2)c2c1[C@@H](C)CN(c1ccc(C(=O)N(C)C)cc1)C2` [Example 738, (S)-N-(4-((5-(4-(dimethylcarbamoyl)phenyl)-1-isopropyl-7-methyl-4,5,6,7-tetrahydro-1H-pyrazolo[4,3-c]pyridine-3-carboxamido)methyl)phenyl)-4-methyl-1-oxa-4,9-diazaspiro[5.5]undecane-9-carboxamide], the EC50 amounted to 1 nM.

Take `CC(C)n1nc(C(=O)NCc2ccc(NC(=O)NC3(C)CNC3)cc2)c2c1[C@@H](C)CN(c1ccc(C(=O)N(C)C)cc1)C2` [Example 739, (S)-5-(4-(dimethylcarbamoyl)phenyl)-1-isopropyl-7-methyl-N-(4-(3-(3-methylazetidin-3-yl)ureido)benzyl)-4,5,6,7-tetrahydro-1H-pyrazolo[4,3-c]pyridine-3-carboxamide]: the EC50 came to 2 nM.

As to `CC(C)n1nc(C(=O)NCc2ccc(NC(=O)N3CCC4(CC3)CCN4C)cc2)c2c1[C@@H](C)CN(c1ccc(C(=O)N(C)C)cc1)C2` [Example 740, (S)-5-(4-(dimethylcarbamoyl)phenyl)-1-isopropyl-7-methyl-N-(4-(1-methyl-1,7-diazaspiro[3.5]nonane-7-carboxamido)benzyl)-4,5,6,7-tetrahydro-1H-pyrazolo[4,3-c]pyridine-3-carboxamide], the concentration giving a half-maximal response (EC50) came out at 2 nM.

As for `CC(C)n1nc(C(=O)NCc2ccc(NC(=O)N3CC4(CCCN(C)C4)C3)cc2)c2c1[C@@H](C)CN(c1ccc(C(=O)N(C)C)cc1)C2` [Example 741, (S)-5-(4-(dimethylcarbamoyl)phenyl)-1-isopropyl-7-methyl-N-(4-(6-methyl-2,6-diazaspiro[3.5]nonane-2-carboxamido)benzyl)-4,5,6,7-tetrahydro-1H-pyrazolo[4,3-c]pyridine-3-carboxamide], the EC50 amounted to 1 nM.

As for `CC(C)n1nc(C(=O)NCc2ccc(NC(=O)N3CCC4(CC3)CN(C)C4)cc2)c2c1[C@@H](C)CN(c1ccc(C(=O)N(C)C)cc1)C2` [Example 742, (S)-5-(4-(dimethylcarbamoyl)phenyl)-1-isopropyl-7-methyl-N-(4-(2-methyl-2,7-diazaspiro[3.5]nonane-7-carboxamido)benzyl)-4,5,6,7-tetrahydro-1H-pyrazolo[4,3-c]pyridine-3-carboxamide], the concentration giving a half-maximal response (EC50) was determined as 1 nM.

`CC(C)n1nc(C(=O)NCc2ccc(NC(=O)N3CCN(C)[C@H](C)C3)cc2)c2c1[C@@H](C)CN(c1ccc(C(=O)N(C)C)cc1)C2` [Example 743, (S)-5-(4-(dimethylcarbamoyl)phenyl)-N-(4-((R)-3,4-dimethylpiperazine-1-carboxamido)benzyl)-1-isopropyl-7-methyl-4,5,6,7-tetrahydro-1H-pyrazolo[4,3-c]pyridine-3-carboxamide]: the concentration for a half-maximal effect (EC50) is 1 nM.

Regarding `CCN1CCN(C(=O)Nc2ccc(CNC(=O)c3nn(C(C)C)c4c3CN(c3ccc(C(=O)N(C)C)cc3)C[C@@H]4C)cc2)CC1` [Example 745, (S)-5-(4-(dimethylcarbamoyl)phenyl)-N-(4-(4-ethylpiperazine-1-carboxamido)benzyl)-1-isopropyl-7-methyl-4,5,6,7-tetrahydro-1H-pyrazolo[4,3-c]pyridine-3-carboxamide], the EC50 was 1 nM.

Source of the values: patent US20250320213A1, “Nitrogen-Containing Heterocyclic Compounds” (Pfizer Inc., priority 2024, published 2025).
